Several values for one entry are separate records, joined by “and”; a condition that tells them apart may be missing. Equal values may be shown once.
Target: T1, HCMV UL141 (Human cytomegalovirus, UniProt Q6RJQ3)
T1 construct: we expressed and purified the full-length recombinant UL141 (amino acids 30–300); made in house
Test: biochemical
Assay type: binding
Procedure: To prepare HCMV UL141 for binding studies, biotinylation was performed using the BiotinTag Micro Biotinylation Kit (Sigma-Aldrich). Purified UL141 protein (50 μg in 50 μl) was mixed with 50 μl of BiotinTag reaction buffer provided in the kit. Sulfo-NHS-Biotin reagent was freshly prepared by dissolving the vial contents in 1 ml of sterile water. A calculated volume of the biotin reagent was added to achieve a 20:1 M excess of biotin to protein. The reaction mixture was incubated for 30 min at room temperature with gentle mixing to ensure efficient labeling. Following incubation, unreacted biotin was removed using the desalting column included in the kit. The biotinylated UL141 protein was eluted in 50 mM Hepes, pH 7.5, 150 mM NaCl. Biotin incorporation was verified using a colorimetric biotin quantification assay (e.g., HABA assay). The biotinylated protein was then quantified spectrophotometrically using a NanoDrop instrument and concentrated to the desired level for Biacore or ELISA binding studies. The biotinylated protein was stored at 4 °C for short-term use or −80 °C for long-term storage to maintain stability.
The sensor surface of an SA chip (Cytiva) was preconditioned with HBS-EP buffer (10 mM Hepes, 150 mM NaCl, 3 mM EDTA, 0.005% Tween-20) to stabilize the baseline and remove any loosely bound streptavidin. Before use, the buffer was filtered through a 0.2 μm polystyrene filter and degassed under vacuum for 10 min to eliminate air bubbles. Biotinylated HCMV UL141 was immobilized on the SA chip, maintaining biotinylation at 0.5 to 1.5 mol per mole of protein. Excess biotin was removed via gel filtration. UL141 was injected at 30 μl/min, achieving maximum immobilization (4000–6000 RU), followed by washing with running buffer. Residual unbound proteins were optionally removed with a 2 M NaCl pulse. To ensure optimal SPR signal detection, which depends on the analyte mass bound to the ligand, relatively high amounts of ligand were immobilized on the sensor chip to achieve a significant response signal upon binding of the small compound. […] Regeneration of the chip surface, when necessary, was performed using 5 mM NaOH. Control injections of zero concentrations and duplicate injections of selected concentrations were included to validate surface regeneration. […]

[1] = UL141 immobilized, substance as analyte, 1:1 Langmuir model
[2] = UL141 immobilized, substance as analyte, 1:1 Langmuir model, listed as cmp 18

T1 sequence (Q6RJQ3 30-300): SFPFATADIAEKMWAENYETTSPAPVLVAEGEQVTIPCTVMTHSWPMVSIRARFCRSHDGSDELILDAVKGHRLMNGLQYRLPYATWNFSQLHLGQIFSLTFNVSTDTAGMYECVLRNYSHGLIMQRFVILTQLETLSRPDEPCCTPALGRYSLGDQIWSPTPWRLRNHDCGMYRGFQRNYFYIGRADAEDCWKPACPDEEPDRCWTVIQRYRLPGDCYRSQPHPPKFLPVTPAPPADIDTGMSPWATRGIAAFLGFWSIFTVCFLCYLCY

**Q.** CCC1C(O)C(O)CN1Cc1ccc(I)cc1 (stereo not shown) [Compound 18] was tested. Which Kd (UL141 immobilized (ligand), substance in solution (analyte), 1:1 Langmuir model, 25 °C) did it give?
**A.** 2.93 µM

**Q.** And the Kd (binding to UL141, SPR)?
**A.** 2.93 µM and 2.9 µM

**Q.** And the Rmax (UL141 immobilized, substance as analyte)?
**A.** 19

**Q.** What about the koff [1] of the same compound?
**A.** 0.157 s⁻¹

**Q.** And the kon [1]?
**A.** 53600 M⁻¹ s⁻¹

**Q.** What about the koff [2] of the same compound?
**A.** (1.57 ± 0.039) × 10^−1 s^−1

**Q.** And the kon [2]?
**A.** (5.36 ± 0.003) × 10^4 M^−1s^−1

— publication PMC12140054, “Small glycomimetic antagonists of the cytomegalovirus glycoprotein UL141 prevent binding to TRAIL death receptor” (The Journal of Biological Chemistry, 2025)
